Results taken from PMC12409821, “Synthesis and Characterization of Co(II), Cu(II), and Ni(II) Complexes of 2,2′‐Bipyridine‐4,4′‐Dicarboxamide Ligands: Antibacterial Evaluation Against Resistant Bacteria and Enzyme Inhibition” (ChemistryOpen, 2025).

Key:
pancreatic lipase = molecular target: T1, pancreatic lipase (Homo sapiens, UniProt P16233); assay: In vitro lipase inhibition assay; format: biochemical
T1 sequence (P16233 17-465): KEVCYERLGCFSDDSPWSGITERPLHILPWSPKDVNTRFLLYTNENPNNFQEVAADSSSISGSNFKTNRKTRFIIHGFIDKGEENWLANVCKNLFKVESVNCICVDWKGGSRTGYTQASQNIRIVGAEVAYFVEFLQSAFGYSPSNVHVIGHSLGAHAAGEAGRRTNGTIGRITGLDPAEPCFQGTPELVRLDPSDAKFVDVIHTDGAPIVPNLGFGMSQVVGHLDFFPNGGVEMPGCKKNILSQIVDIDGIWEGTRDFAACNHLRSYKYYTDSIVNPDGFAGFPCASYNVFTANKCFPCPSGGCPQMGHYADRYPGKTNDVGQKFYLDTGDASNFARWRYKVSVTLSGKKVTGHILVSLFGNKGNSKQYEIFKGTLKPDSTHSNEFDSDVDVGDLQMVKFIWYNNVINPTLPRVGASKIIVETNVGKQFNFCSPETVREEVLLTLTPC
Description: (§1) In cholinesterase activity measurements, the method reported by Karagecili and coworkers was used with minor modifications.^[ [23] ^] Here, acetylchoiniodate was used as a substrate for both enzymes. Lipase enzyme activity measurement was performed according to the method reported by Bulut.^[ [24] ^] In inhibition studies, measurements were made at at least five different concentrations of the molecules synthesized. %activity values were calculated by accepting enzyme activity measurements without inhibitor as 100%. Then, molecule concentrations were plotted against Activity% values.

[1] = molecular target: acetylcholinesterase (AChE) (Homo sapiens, UniProt P22303); assay: biochemical; details: at least five concentrations
Description: as §1

[2] = molecular target: butyrylcholinesterase (BChE) (Homo sapiens, UniProt P06276); assay: biochemical; details: at least five concentrations
Description: as §1

Chain of acetylcholinesterase (AChE) (P22303 32-614, species assumed): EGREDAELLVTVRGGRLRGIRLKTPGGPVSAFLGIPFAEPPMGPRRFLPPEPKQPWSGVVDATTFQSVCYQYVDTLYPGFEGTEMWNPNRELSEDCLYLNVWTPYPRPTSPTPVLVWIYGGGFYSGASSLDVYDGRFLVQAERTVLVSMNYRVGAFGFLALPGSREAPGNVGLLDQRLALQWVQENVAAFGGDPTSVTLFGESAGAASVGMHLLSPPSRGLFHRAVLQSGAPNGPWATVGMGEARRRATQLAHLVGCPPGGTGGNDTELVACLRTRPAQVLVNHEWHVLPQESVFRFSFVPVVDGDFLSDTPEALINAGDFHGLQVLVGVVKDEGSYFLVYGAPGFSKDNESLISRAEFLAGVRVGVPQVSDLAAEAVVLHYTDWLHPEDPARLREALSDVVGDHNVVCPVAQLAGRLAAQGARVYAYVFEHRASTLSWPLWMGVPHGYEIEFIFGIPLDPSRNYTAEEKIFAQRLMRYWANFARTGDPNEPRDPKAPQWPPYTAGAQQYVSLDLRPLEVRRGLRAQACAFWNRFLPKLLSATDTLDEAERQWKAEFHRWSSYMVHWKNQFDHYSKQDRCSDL
Chain of butyrylcholinesterase (BChE) (P06276 29-602, species assumed): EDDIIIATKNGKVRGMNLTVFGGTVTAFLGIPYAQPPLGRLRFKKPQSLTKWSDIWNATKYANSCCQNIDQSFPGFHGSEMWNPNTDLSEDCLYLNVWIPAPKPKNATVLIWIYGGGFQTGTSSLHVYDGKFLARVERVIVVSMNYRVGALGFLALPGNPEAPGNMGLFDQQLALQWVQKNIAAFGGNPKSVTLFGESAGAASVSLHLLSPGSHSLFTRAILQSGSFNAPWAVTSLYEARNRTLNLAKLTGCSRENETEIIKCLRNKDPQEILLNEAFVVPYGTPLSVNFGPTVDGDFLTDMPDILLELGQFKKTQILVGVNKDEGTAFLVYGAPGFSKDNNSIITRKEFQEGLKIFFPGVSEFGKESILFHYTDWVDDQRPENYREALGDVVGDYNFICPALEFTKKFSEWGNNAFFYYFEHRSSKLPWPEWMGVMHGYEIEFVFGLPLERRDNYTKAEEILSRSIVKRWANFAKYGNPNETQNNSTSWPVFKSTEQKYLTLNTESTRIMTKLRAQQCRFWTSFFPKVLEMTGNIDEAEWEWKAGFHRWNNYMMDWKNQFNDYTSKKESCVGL

O=C(NCc1ccccn1)c1ccnc(-c2cc(C(=O)NCc3ccccn3)ccn2)c1 [L1, N4,N4′‐bis(pyridin‐2‐ylmethyl)‐[2,2′‐bipyridine]‐4,4′‐dicarboxamide]
Effect on lipase in the concentration ranges studied (pancreatic lipase; no IC50 given in Table 5): did not show a linear effect | IC50 [1]: 173 µM | IC50 [2]: 68.1 µM

O=C(NCC1CCCCN1)c1ccnc(-c2cc(C(=O)NCC3CCCCN3)ccn2)c1 (stereo not drawn) [L2, N4,N4′‐bis(piperidin‐2‐ylmethyl)‐[2,2′‐bipyridine]‐4,4′‐dicarboxamide]
IC50 (pancreatic lipase; at least five concentrations): 24.1 µM | IC50 [1]: 10.2 µM | IC50 [2]: 8.83 µM
